# Experimental data: ChEMBL document CHEMBL3885881, “DrugMatrix”
# Organism: Rattus norvegicus
# Assay: DrugMatrix - Regimen: Daily Repeat
# Type: toxicity, organism-based, Sprague-Dawley
# Design: regimen Daily Repeat, gender Male, age 6-8 weeks
# Settings: in vivo, po, route oral GAVAGE, vehicle .5 % CMC; for BASOPHIL / EOSINOPHIL / ERYTHROCYTE COUNT / HEMATOCRIT / HEMOGLOBIN / LEUKOCYTE COUNT / LYMPHOCYTE / MEAN CORPUSCULAR HEMOGLOBIN / MEAN CORPUSCULAR HEMOGLOBIN CONCENTRATION / MEAN CORPUSCULAR VOLUME / MONOCYTE / NEUTROPHIL / PLATELET COUNT: tissue Blood; for ALANINE AMINOTRANSFERASE / ALBUMIN / ALKALINE PHOSPHATASE / ASPARTATE AMINOTRANSFERASE / BLOOD UREA NITROGEN / CHLORIDE / CHOLESTEROL / CREATINE PHOSPHOKINASE / CREATININE / GLUCOSE / PHOSPHORUS / POTASSIUM / SODIUM / TOTAL BILIRUBIN / TOTAL PROTEIN: tissue Plasma
# [1] = 0 mg/kg, 72 h, dose level Control, time 3 day
# [2] = 0 mg/kg, 120 h, dose level Control, time 5 day
# [3] = 25 mg/kg, 72 h, dose level Low, time 3 day
# [4] = 25 mg/kg, 120 h, dose level Low, time 5 day
compound,measurement,setting,value
C[C@]12CCC(=O)C=C1CC[C@@H]1[C@@H]2C(=O)C[C@@]2(C)[C@H]1CC[C@]2(O)C(=O)CO [CORTISONE],BASOPHIL,[1],1.52%
same,EOSINOPHIL,[1],0.98%
same,ERYTHROCYTE COUNT,[1],6.96 x10E6/uL
same,HEMATOCRIT,[1],44.65%
same,HEMOGLOBIN,[1],13.62 G/DL
same,LEUKOCYTE COUNT,[1],9.83 x10E3/uL
same,LYMPHOCYTE,[1],76.48%
same,MEAN CORPUSCULAR HEMOGLOBIN,[1],19.57 pg
same,MEAN CORPUSCULAR HEMOGLOBIN CONCENTRATION,[1],30.47 G/DL
same,MEAN CORPUSCULAR VOLUME,[1],64.22 fL
same,MONOCYTE,[1],2.13%
same,NEUTROPHIL,[1],18.6%
same,PLATELET COUNT,[1],1217.17 x10E3/uL
same,ALANINE AMINOTRANSFERASE,[1],41 u/L
same,ALBUMIN,[1],3.77 G/DL
same,ALKALINE PHOSPHATASE,[1],411.83 u/L
same,ASPARTATE AMINOTRANSFERASE,[1],62.83 u/L
same,BLOOD UREA NITROGEN,[1],15.17 mg/dL
same,CHLORIDE,[1],104.33 MEQ/L
same,CHOLESTEROL,[1],71.17 mg/dL
same,CREATINE PHOSPHOKINASE,[1],123.5 u/L
same,CREATININE,[1],0.55 mg/dL
same,GLUCOSE,[1],182.67 mg/dL
same,PHOSPHORUS,[1],11.23 mg/dL
same,POTASSIUM,[1],7.03 MEQ/L
same,SODIUM,[1],148 MEQ/L
same,TOTAL BILIRUBIN,[1],0.57 mg/dL
same,TOTAL PROTEIN,[1],6.85 G/DL
same,BASOPHIL,[2],1.35%
same,EOSINOPHIL,[2],0.43%
same,ERYTHROCYTE COUNT,[2],6.96 x10E6/uL
same,HEMATOCRIT,[2],44.35%
same,HEMOGLOBIN,[2],13.98 G/DL
same,LEUKOCYTE COUNT,[2],9.45 x10E3/uL
same,LYMPHOCYTE,[2],80.83%
same,MEAN CORPUSCULAR HEMOGLOBIN,[2],20.1 pg
same,MEAN CORPUSCULAR HEMOGLOBIN CONCENTRATION,[2],31.52 G/DL
same,MEAN CORPUSCULAR VOLUME,[2],63.72 fL
same,MONOCYTE,[2],2.37%
same,NEUTROPHIL,[2],14.05%
same,PLATELET COUNT,[2],1298 x10E3/uL
same,ALANINE AMINOTRANSFERASE,[2],42.17 u/L
same,ALBUMIN,[2],3.77 G/DL
same,ALKALINE PHOSPHATASE,[2],419 u/L
same,ASPARTATE AMINOTRANSFERASE,[2],66.67 u/L
same,BLOOD UREA NITROGEN,[2],16.67 mg/dL
same,CHLORIDE,[2],103.17 MEQ/L
same,CHOLESTEROL,[2],66.33 mg/dL
same,CREATINE PHOSPHOKINASE,[2],148.33 u/L
same,CREATININE,[2],0.58 mg/dL
same,GLUCOSE,[2],196.83 mg/dL
same,PHOSPHORUS,[2],11.8 mg/dL
same,POTASSIUM,[2],6.47 MEQ/L
same,SODIUM,[2],148.33 MEQ/L
same,TOTAL BILIRUBIN,[2],0.53 mg/dL
same,TOTAL PROTEIN,[2],6.77 G/DL
same,BASOPHIL,[3],2.4%
same,EOSINOPHIL,[3],0.4%
same,ERYTHROCYTE COUNT,[3],6.64 x10E6/uL
same,HEMATOCRIT,[3],45.5%
same,HEMOGLOBIN,[3],13.9 G/DL
same,LEUKOCYTE COUNT,[3],7.9 x10E3/uL
same,LYMPHOCYTE,[3],78.6%
same,MEAN CORPUSCULAR HEMOGLOBIN,[3],21 pg
same,MEAN CORPUSCULAR HEMOGLOBIN CONCENTRATION,[3],30.6 G/DL
same,MEAN CORPUSCULAR VOLUME,[3],68.5 fL
same,MONOCYTE,[3],2.95%
same,NEUTROPHIL,[3],15.4%
same,PLATELET COUNT,[3],1648.5 x10E3/uL
same,ALANINE AMINOTRANSFERASE,[3],43 u/L
same,ALBUMIN,[3],3.8 G/DL
same,ALKALINE PHOSPHATASE,[3],401 u/L
same,ASPARTATE AMINOTRANSFERASE,[3],68.67 u/L
same,BLOOD UREA NITROGEN,[3],12 mg/dL
same,CHLORIDE,[3],103.67 MEQ/L
same,CHOLESTEROL,[3],62.67 mg/dL
same,CREATINE PHOSPHOKINASE,[3],120.67 u/L
same,CREATININE,[3],0.53 mg/dL
same,GLUCOSE,[3],178.33 mg/dL
same,PHOSPHORUS,[3],12.83 mg/dL
same,POTASSIUM,[3],6.87 MEQ/L
same,SODIUM,[3],149 MEQ/L
same,TOTAL BILIRUBIN,[3],0.47 mg/dL
same,TOTAL PROTEIN,[3],6.63 G/DL
same,BASOPHIL,[4],1.53%
same,EOSINOPHIL,[4],0.33%
same,ERYTHROCYTE COUNT,[4],7.03 x10E6/uL
same,HEMATOCRIT,[4],45.13%
same,HEMOGLOBIN,[4],14.27 G/DL
same,LEUKOCYTE COUNT,[4],9 x10E3/uL
same,LYMPHOCYTE,[4],77.9%
same,MEAN CORPUSCULAR HEMOGLOBIN,[4],20.33 pg
same,MEAN CORPUSCULAR HEMOGLOBIN CONCENTRATION,[4],31.67 G/DL
same,MEAN CORPUSCULAR VOLUME,[4],64.27 fL
same,MONOCYTE,[4],2.7%
same,NEUTROPHIL,[4],16.73%
same,PLATELET COUNT,[4],1381.67 x10E3/uL
same,ALANINE AMINOTRANSFERASE,[4],45 u/L
same,ALBUMIN,[4],3.7 G/DL
same,ALKALINE PHOSPHATASE,[4],435 u/L
same,ASPARTATE AMINOTRANSFERASE,[4],68.33 u/L
same,BLOOD UREA NITROGEN,[4],15.33 mg/dL
same,CHLORIDE,[4],103 MEQ/L
same,CHOLESTEROL,[4],54 mg/dL
same,CREATINE PHOSPHOKINASE,[4],128.67 u/L
same,CREATININE,[4],0.5 mg/dL
same,GLUCOSE,[4],186 mg/dL
same,PHOSPHORUS,[4],12.57 mg/dL
same,POTASSIUM,[4],6.6 MEQ/L
same,SODIUM,[4],148 MEQ/L
same,TOTAL BILIRUBIN,[4],0.47 mg/dL
same,TOTAL PROTEIN,[4],6.6 G/DL
